In patent US12611415B2, “Methods and compounds for treatment of metabolic disease” (Monash University, priority 2019, dated 2026):
“Also recorded” adds a separate entry of the source.

Columns and labels:
[1] = test system: C57BL6/J mice fed high fat diet (HFD); assay: Celecoxib / Compound I-1 treatment study in HFD fed mice; assay type: in vivo, mouse
Experimental: All animal work was conducted per Australian National Health and Medical Research Council (NHMRC) guidelines for the care and use of animals in research. Seven-week-old male Sprague Dawley rats or C57BL6/J mice were randomized and housed in groups of 2-5 in a temperature-controlled room under specific-pathogen free (SPF) or standard animal housing conditions with free access to food and water.
In the observational studies, mice or rats were fed semi-purified normal chow diet (control fat diet (CFD), 7% w/w fat and 16% total energy from fat, AIN93G, Specialty Feeds Pty Ltd, Australia) or high fat diet (HFD, 36% w/w fat and 59% total energy from fat, SF03-002, Specialty Feeds Pty Ltd, Australia) for a total duration of 6, 15, 23 or 32 weeks to evaluate changes to mesenteric lymph composition, structure and function over time during the progression of obesity. Mice or rats were fed with the same CFD or HFD for 6-10 weeks prior to collection of mesenteric lymph for in vitro incubation with lymphatic endothelial cells (LECs) and adipocytes, respectively.
A “prevention study” and a “treatment study” were also conducted. Both the prevention and treatment studies included mice fed the CFD or HFD for 15 or 23 weeks, as described above. In the prevention study, an additional group of mice was fed the HFD supplemented with celecoxib at a dose equivalent to ˜29 mg/kg/day (based on average food intake) for 15 weeks. In the treatment study, animals were fed the HFD for 15 weeks followed by a HFD supplemented with celecoxib (˜29 mg/kg/day) or Compound I-1 (˜9 mg/kg/day celecoxib equivalents) for 7-8 weeks. The celecoxib was purchased from MedChemExpress (NJ, USA), and Compound I-1 was synthesized consistent with the description in WO2016/023082.
Across all studies, body mass was measured once per week. Oral glucose tolerance tests (OGTTs) were conducted at 5, 14, 22 and/or 31 weeks after commencing feeding mice the HFD or CFD. To perform OGTTs, mice were routinely handled for 2 weeks prior to minimize the stress caused by handling during the experiment. On the day of the OGTT, mice were fasted for 4 h (7-11 am) but still had free access to water. Glucose (50 mg D-glucose in 200 μL water) was administered via oral gavage and a drop of blood was collected from the tail tip at fixed time points (0, 15, 30, 60, 90 and 120 mins). Blood glucose was measured using a One-touch glucometer (AccuCheck Performa, Roche, Switzerland). Plasma was separated from the remaining blood sample via centrifugation and reserved for measurement of plasma insulin concentrations via ELISA as described above.
At the end of all experiments, mice were euthanised via cervical dislocation and rats were euthanised via intracardiac injection of sodium pentobarbitone (100 mg). Organs and tissues, including the lymph nodes and adipose tissue depots, were carefully collected. The mass of adipose tissue depots was weighed to determine adiposity.
Mesenteric adipose tissue samples (for lymphatic capillary and mesenteric lymphatic vessel analysis) and small intestine samples (for villi and lacteal analysis) were collected with fine forceps. Whole mount adipose tissue was cut into ˜3 mm×3 mm×2 mm pieces and whole mount small intestine was cut into 1.5 cm segments. Immediately after collection, the tissue samples were fixed in 4% paraformaldehyde in PBS at 4° C. overnight. Fat associated lymph clusters (FALCs) were identified by intraperitoneal injection of FluoSphere Carboxylate-Modified Nanospheres, 100 nm, yellow-green (505/515, Invitrogen, CA, USA) and collected with fine forceps under a Zeiss Stemi 2000-CS surgical microscope (2.5× magnification) with a fluorescence adaptor (Nightsea, MA, USA). The fluorescent light was filtered through a cyan color light filter (Electron Microscopy Science, PA, USA) to visualize the nanospheres and thus the FALCs. FALCs were cleaned of adipose tissue after collected and placed whole in 4% paraformaldehyde in PBS at 4° C. overnight. […]

[2] = test system: mice reintroduced to a high-fat diet; assay: HFD rechallenge study (FIG. 9); assay type: in vivo, mouse; conditions: Cele-pro (CP30)
Source text: Details regarding treatment times and controls are shown in panel (a). Panels b-e show whole mount immunofluorescence images of the mesenteric afferent lymph vessels and cell nuclei in VAT of several mouse groups. Panels f-i show lymph “leakage” into surrounding VAT due to HFD-induced remodelling of the mesenteric lymphatics, as measured by intramucosal injection of Evans blue dye and lymphangiography. (j-m) n=5 (CFD), 5 (HFD), 6 (HFD rechallenge-Cele-pro (CP30)) and 5-7 (HFD rechallenge-CFD switch). (a-d) n=5 (CFD), 6 (HFD), 8 (HFD rechallenge-Cele-Pro (CP30)) and 7 (HFD rechallenge-CFD switch).

[3] = Compound I-1 ~9 mg/kg/day celecoxib equivalents, celecoxib at a 3.2-fold higher dose
[4] = HFD 15 weeks, then 7 weeks drug in HFD feed
[5] = HFD 15 weeks, then 7 weeks drug in HFD feed, Compound I-1 ~9 mg/kg/day celecoxib equivalents, celecoxib ~29 mg/kg/day

CCCCCCCCCCCCCCCC(=O)OCC(COC(=O)CCCCCCCCCCCCCCC)OC(=O)CCCCCCCCC(=O)Oc1cc(C)cc(C)c1C(C)(C)CC(=O)NS(=O)(=O)c1ccc(-n2nc(C(F)(F)F)cc2-c2ccc(C)cc2)cc1 [Compound I-1]
body weight gain induced by HFD (obesity) [1, 3]: significantly reduced; also recorded: reverses, more effectively | hyperinsulinemia in the fasted state and after glucose challenge (insulin resistance) [1, 3]: significantly improved; also recorded: reverses, more effectively | oral glucose tolerance [1, 3]: significantly improved | SAT and VAT accumulation ([1]; Compound I-1 ~9 mg/kg/day celecoxib equivalents, compared with celecoxib at a 3.2-fold higher dose): more significantly reduced | cholesterol levels in mesenteric lymph [1, 4]: decreased | lymph lipid profile (lipidomic analysis of mesenteric lymph) / lymph composition [1, 4]: shift in the lymph lipid profile from a HFD-like toward a more CFD-like profile; also recorded: reverses, more effectively | total concentrations of triglyceride, phospholipid and glucose in mesenteric lymph [1, 4]: trends toward a decrease | total free fatty acid (FFA) in mesenteric lymph [1, 4]: significantly increased | immune cell numbers in mesenteric lymph nodes reversed to levels similar to CFD mice [1, 5]: successfully reversed | immune cells in the mesenteric lymph fluid [1, 5]: reduced | lymph leakage into VAT [1, 5]: reversed; also recorded: reverses, more effectively | mesenteric lymph levels of PGE2 [1, 5]: reduced | mesenteric lymph levels of VEGF-C [1, 5]: below the limit of quantification; also recorded: reverses, more effectively | mesenteric lymphatic branching [1, 5]: reversed; also recorded: reverses, more effectively | mesenteric lymphatic dysfunction, visceral obesity, inflammation, glucose intolerance, and insulin resistance associated with obesity ([1]; compared with non-lymph-targeted celecoxib): reverse, more effectively | beneficial effects after reintroducing the mice to a high-fat diet (HFD rechallenge) [2]: persist
